From patent US4690930A, “Pyrazolo[4,3-c]quinoline-3-one and imidazo[4,3-c]cinnolin-3-one derivatives and their use as psychotropic agents” (Shionogi & Co., Ltd, priority 1984, dated 1987)

Legend:
benzodiazepine receptor = assay: Binding test to benzodiazepine receptor (inhibition of specific binding of tritium labeled diazepam); design: species or system Wistar rats (cerebral cortex); conditions: 2 nM tritium labeled diazepam, rat cerebral cortex, 0° C., 60 minutes; Ki calculated from IC50
Method: Binding test to benzodiazepine receptor
This test was carried out in the modified method of Moeler & Okada, Science, 198, 849-851 (1977).
Receptor preparation was provided from the cerebral cortex of Wistar rats (male, 11 to 13 weeks age). Inhibitory action of the test compound on the specific binding of tritium labeled diazepam to the receptor was evaluated as follows. 2 nM tritium labeled diazepam and an aqueous solution of the test compound at 5 or 6 concentrations were incubated with the receptor preparation at 0° C. for 60 minutes. The 50% inhibitory concentration (IC50) was measured by the concentration-response curve.
The inhibitory constant (Ki) was calculated according to the following equation, in which Kd is the dissociation constant of the tritium labeled diazepam and L is the concentration of the labeled ligand. [formula]

male mice = assay: Inverse agonist activity (oral compound 1 hour before subcutaneous pentylenetetrazol, mice); type: in vivo; conditions: Mus musculus, 1 hour before s.c. 75 mg/kg pentylenetetrazol (subconvulsive dose), 8-16 male mice a group, Probit method, read-out: ED50 (dose at which 50% of mice died)
Method: Inverse agonist activity was evaluated by the following procedure.
The test compound was administered orally to 8-16 male mice a group, 1 hour before a subcutaneous administration of 75 mg/kg of pentylenetetrazol (a subconvulsive dose). The dose (ED50) at which 50% of mice died, was calculated by the Probit method.

Work on `Cc1ccc2c3nn(-c4csc(C)c4)c(=O)c-3c[nH]c2c1` [Ic2 -8] yielded a Ki (benzodiazepine receptor) of 1.24 nM.

`Cc1cc(-n2nc3c4cc(F)ccc4[nH]cc-3c2=O)cs1` [Ic2 -7] showed a Ki (benzodiazepine receptor) of 0.17 nM.

Molecule `Cc1cc(-n2nc3c4ccccc4[nH]cc-3c2=O)cs1` [Ic2 -2, 2-[3-(5-methylthienyl)]-2,5-dihydro-3H-pyrazolo[4,3-c]quinolin-3-one] has a Ki (benzodiazepine receptor) of 0.45 nM and an ED50 (male mice) of 1.67 mg/kg.

For `O=c1c2c[nH]c3ccccc3c-2nn1-c1nccs1` [Control 2, reference compound], the ED50 (male mice) was 87 mg/kg.

In the case of `CCCCc1ccc(-n2nc3c4ccccc4[nH]cc-3c2=O)s1` [Ic1 -5], the Ki (benzodiazepine receptor) is reported as 1.53 nM.

With `Cc1ccc(-n2nc3c4ccccc4[nH]cc-3c2=O)s1` [Ic1 -1, 2-[2-(5-Methylthienyl)]-2,5-dihydro-3H-pyrazolo[4,3-c]quinolin-3-one] the Ki (benzodiazepine receptor) was 0.35 nM.

`Cc1ccc2[nH]cc3c(=O)n(-c4csc(C)c4)nc-3c2c1` [Ic2 -4] gave a Ki (benzodiazepine receptor) of 0.3 nM.

Molecule `O=c1c2c[nH]c3ccccc3c-2nn1-c1ccsc1` [Ic2 -1, 2-(3-Thienyl)-2,5-dihydro-3H-pyrazolo[4,3-c]quinolin-3-one] has a Ki (benzodiazepine receptor) of 0.29 nM.

With `Cc1csc(-n2nc3c4ccccc4[nH]cc-3c2=O)c1` [Ic1 -12] the Ki (benzodiazepine receptor) was 0.38 nM.

For `Cc1ccc(-n2nc3c4cc(Cl)ccc4[nH]cc-3c2=O)s1` [Ic1 -8], the Ki (benzodiazepine receptor) was 0.31 nM.

In the case of `Cc1ccc(-n2nc3c4ccc(Cl)cc4[nH]cc-3c2=O)s1` [Ic1 -11], the Ki (benzodiazepine receptor) is reported as 1.11 nM.

In the case of `COc1ccc2[nH]cc3c(=O)n(-c4csc(C)c4)nc-3c2c1` [Ic2 -5, 2-[3-(5-methylthienyl)]-8-methoxy-2,5-dihydro-3H-pyrazolo[4,3-c]quinolin-3-one], the Ki (benzodiazepine receptor) is reported as 0.39 nM.

`Cc1ccc2[nH]cc3c(=O)n(-c4ccc(C)s4)nc-3c2c1` [Ic1 -6] was tested, and the Ki (benzodiazepine receptor) was 0.22 nM.

For `Cc1cc(-n2nc3c4ccccc4[nH]cc-3c2=O)sc1C` [Ic1 -3], the Ki (benzodiazepine receptor) was 0.63 nM.

`Cc1ccc2c3nn(-c4ccc(C)s4)c(=O)c-3c[nH]c2c1` [Ic1 -10] showed a Ki (benzodiazepine receptor) of 1.44 nM.

`CCc1ccc(-n2nc3c4ccccc4[nH]cc-3c2=O)s1` [Ic1 -2] showed a Ki (benzodiazepine receptor) of 1.51 nM.

`Cc1ccc(-n2nc3c4cc(F)ccc4[nH]cc-3c2=O)s1` [Ic1 -9] showed a Ki (benzodiazepine receptor) of 0.14 nM.

With `Cc1cc(-n2nc3c4cc(Cl)ccc4[nH]cc-3c2=O)cs1` [Ic2 -6] the Ki (benzodiazepine receptor) was 0.58 nM.

For `COc1ccc2[nH]cc3c(=O)n(-c4ccc(C)s4)nc-3c2c1` [Ic1 -7], the Ki (benzodiazepine receptor) was 0.17 nM.

Molecule `Cc1cc(-n2nc3c4ccc(Cl)cc4[nH]cc-3c2=O)cs1` [Ic2 -9] has a Ki (benzodiazepine receptor) of 0.96 nM.
